Data reported in US10941145B2, “Toll-like receptor 7 (TLR7) agonists having a benzotriazole moiety, conjugates thereof, and methods and uses therefor” (BRISTOL-MYERS SQUIBB COMPANY, priority 2017, dated 2021).

Tested on: IFN-α
Test: not given
Settings: fold less potent than the corresponding purine-8-one compound; cited from earlier work

| SMILES | potency less than that of the corresponding purine-8-one compound, as measured by IFN-α induction [×] |
| --- | --- |
| CCCCOc1nc(N)c2c(n1)N(Cc1cccc(CN3CCCC3)c1)CC(=O)N2 [Vesatolimod, vesatolimod] | 100 |

Molecular target: T1, human TLR7 (Homo sapiens, UniProt Q9NYK1)
T1 construct: host or cells: HEK-Blue TLR7 cells (engineered human embryonic kidney cells)
T1 sequence (Q9NYK1 27-1049): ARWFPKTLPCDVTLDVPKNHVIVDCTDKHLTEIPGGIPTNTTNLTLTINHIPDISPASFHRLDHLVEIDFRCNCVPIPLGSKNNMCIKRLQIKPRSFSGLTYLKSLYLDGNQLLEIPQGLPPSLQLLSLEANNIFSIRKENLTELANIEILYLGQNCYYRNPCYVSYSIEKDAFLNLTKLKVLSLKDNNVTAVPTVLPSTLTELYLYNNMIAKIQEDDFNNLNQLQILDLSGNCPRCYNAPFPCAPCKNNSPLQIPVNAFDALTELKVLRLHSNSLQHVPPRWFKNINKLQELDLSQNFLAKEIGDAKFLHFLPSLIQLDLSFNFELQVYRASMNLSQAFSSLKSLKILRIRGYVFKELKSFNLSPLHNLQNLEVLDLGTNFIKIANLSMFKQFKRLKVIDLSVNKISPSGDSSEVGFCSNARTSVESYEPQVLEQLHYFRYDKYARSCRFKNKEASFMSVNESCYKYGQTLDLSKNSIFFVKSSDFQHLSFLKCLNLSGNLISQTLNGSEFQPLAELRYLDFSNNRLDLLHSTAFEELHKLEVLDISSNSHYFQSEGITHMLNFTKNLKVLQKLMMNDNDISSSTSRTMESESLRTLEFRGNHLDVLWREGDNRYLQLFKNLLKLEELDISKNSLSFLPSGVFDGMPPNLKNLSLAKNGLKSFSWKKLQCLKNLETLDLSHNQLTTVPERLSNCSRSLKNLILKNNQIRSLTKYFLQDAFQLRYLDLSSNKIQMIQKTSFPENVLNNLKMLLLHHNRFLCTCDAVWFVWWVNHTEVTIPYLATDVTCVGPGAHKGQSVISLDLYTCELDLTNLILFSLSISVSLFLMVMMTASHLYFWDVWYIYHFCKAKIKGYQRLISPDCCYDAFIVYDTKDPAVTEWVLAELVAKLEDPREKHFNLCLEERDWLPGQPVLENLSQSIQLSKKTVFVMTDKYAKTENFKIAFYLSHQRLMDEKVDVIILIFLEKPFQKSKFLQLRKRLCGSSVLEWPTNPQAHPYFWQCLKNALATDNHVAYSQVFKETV
Test: HEK-Blue TLR7 reporter assay (TLR7 agonism)
Type: cell-based
Settings: HEK-Blue TLR7 cells, human TLR7-SEAP reporter, 18 h treatment
Experimental: This example describes a method for assaying TLR7 agonist activity of the compounds disclosed in this specification.
HEK-Blue™ TLR7 cells were added to each well of a 384-well tissue-culture plate (15,000 cells per well) and incubated 16-18 h at 37° C., 5% CO2. Compounds (100 nl) were dispensed into wells containing the HEK-Blue™ TLR cells and the treated cells were incubated at 37° C., 5% CO2. After 18 h treatment ten microliters of freshly-prepared Quanti-Blue™ reagent (Invivogen) was added to each well, incubated for 30 min (37° C., 5% CO2) and SEAP levels measured using an Envision plate reader (OD=620 nm).

| SMILES | EC50 [nM] |
| --- | --- |
| CCCCOc1nc(N)c2nc(O)n(Cc3ccc4c(c3)nnn4CCO)c2n1 [Ia-01] | 5.4 |
| CCCCOc1nc(N)c2nc(O)n(Cc3ccc4c(c3)nnn4CCCl)c2n1 [Ia-02] | 26 |
| CCCCNCCn1nnc2cc(Cn3c(O)nc4c(N)nc(OCCCC)nc43)ccc21 [Ia-03] | 2.3 |
| CCCCOc1nc(N)c2nc(O)n(Cc3ccc4c(c3)nnn4CCNC3CC3)c2n1 [Ia-04] | 4 |
| CCCCOc1nc(N)c2nc(O)n(Cc3ccc4c(c3)nnn4CCNC3CCC3)c2n1 [Ia-05] | 0.9 |

Next, values leading:

| EC50 [nM] | SMILES |
| --- | --- |
| 11 | CCCCOc1nc(N)c2nc(O)n(Cc3ccc4c(c3)nnn4CCNC3COC3)c2n1 [Ia-06] |
| 2.4 | CCCCOc1nc(N)c2nc(O)n(Cc3ccc4c(c3)nnn4CCNCC3COC3)c2n1 [Ia-07] |
| 113 | CCCCOc1nc(N)c2nc(O)n(Cc3ccc4c(c3)nnn4CCNC3CN(C(=O)OC(C)(C)C)C3)c2n1 [Ia-08] |
| 24 | CCCCOc1nc(N)c2nc(O)n(Cc3ccc4c(c3)nnn4CCNCc3ccccc3)c2n1 [Ia-09] |
| 7.2 | CCCCOc1nc(N)c2nc(O)n(Cc3ccc4c(c3)nnn4CCNCc3ccncc3)c2n1 [Ia-10] |

Tested on: interleukin 6 (IL-6)
Test: Interleukin 6 (IL-6) induction in human whole blood
Type: cell-based
Settings: 37° C., 20 h, AlphaLISA
Experimental: This example describes a method for assaying interleukin 6 induction by compounds disclosed in this specification.
Compounds diluted in DMSO were transferred to individual wells of a Matrix Technologies clear, V-bottom 384-well plate using ECHO acoustic liquid handling technology (25 nL per well). Human whole-blood samples (25 uL) were added to each well using a CyBio FeliX liquid handling instrument. The plate was shaken on a plate shaker for three min before the reaction mixtures at 37° C. for 20 h. Basel RPMI 1640 medium (supplemented with L-glutamine) was then added to each well (25 uL per well) prior to liberating plasma from each sample by centrifugation (450×g, 5 min, ambient temperature). Treated plasma samples (3 uL) were subsequently transferred to individual wells of a white, shallow, 384-well ProxiPlate (Perkin Elmer) using the FeliX liquid handling instrument and their interleukin 6 levels were measured using AlphaLISA technology as described by the manufacturer, PerkinElmer. Data analyses software was used to determine compound EC50 values where the baseline was established using average DMSO values and 100% induction established using reference compound values at the highest concentration tested. EC50's can be determined with software such as Graphpad Prism™.

| SMILES | EC50 [nM] |
| --- | --- |
| CCCCOc1nc(N)c2nc(O)n(Cc3ccc4c(c3)nnn4CCO)c2n1 [Ia-01] | 37 |
| CCCCOc1nc(N)c2nc(O)n(Cc3ccc4c(c3)nnn4CCCl)c2n1 [Ia-02] | 53 |
| CCCCNCCn1nnc2cc(Cn3c(O)nc4c(N)nc(OCCCC)nc43)ccc21 [Ia-03] | 16.8 |
| CCCCOc1nc(N)c2nc(O)n(Cc3ccc4c(c3)nnn4CCNC3CC3)c2n1 [Ia-04] | 15.3 |
| CCCCOc1nc(N)c2nc(O)n(Cc3ccc4c(c3)nnn4CCNC3CCC3)c2n1 [Ia-05] | 22.5 |

Now from value to molecule:

| EC50 [nM] | SMILES |
| --- | --- |
| 56.2 | CCCCOc1nc(N)c2nc(O)n(Cc3ccc4c(c3)nnn4CCNC3COC3)c2n1 [Ia-06] |
| 19.7 | CCCCOc1nc(N)c2nc(O)n(Cc3ccc4c(c3)nnn4CCNCC3COC3)c2n1 [Ia-07] |
| 44 | CCCCOc1nc(N)c2nc(O)n(Cc3ccc4c(c3)nnn4CCNCc3ccccc3)c2n1 [Ia-09] |
| 18.2 | CCCCOc1nc(N)c2nc(O)n(Cc3ccc4c(c3)nnn4CCNCc3ccncc3)c2n1 [Ia-10] |
